This is an account of results in patent publication US11052158B2, “Delivery of urea to cells of the macula and retina using liposome constructs” (priority 2016, dated 2021).

For data set [1], the system named is eyes of New Zealand white rabbits.
Description: Female New Zealand white rabbits were obtained from Western Oregon Rabbit Co. (Philomath, Oreg.) and were housed and cared for in compliance with the regulations of the USDA Animal Welfare Act and under the review and approval of the institution's Animal Care and Use Committee.
Prior to placement on study, each animal underwent an ophthalmic examination (slit-lamp biomicroscopy and indirect ophthalmoscopy). […] The acceptance criteria for placement on study were scores of “0” for all variables.
Six female New Zealand White rabbits (two per subgroup) were administered urea-encapsulated liposome constructs (58 mol % DOPC, 42 mol % cholesterol) intravitreally (IVT) as a single dose into both eyes (OU). Animals were anesthetized with an intramuscular (IM) injection of ketamine hydrochloride (30 mg/kg), xylazine (5 mg/kg), and acepromazine (3 mg/kg) followed by isoflurane by inhalation (1-2.5%) in oxygen (1 L/min). One to two drops of topical proparacaine hydrochloride anesthetic (0.5%) were applied to the animal's eyes prior to the surgical procedure. Animals were kept anesthetized with their heads stabilized for three hours post dose, with one eye facing up and the other eye facing down.
After three hours, a clinical ophthalmic examination was performed, animals were euthanized. Vitreous humor (VH) was collected as 3 fractions. Pupils were dilated using one drop each of 10% phenylephrine and 1% tropicamide. Two 18G needles were inserted into the eye at the 3 o'clock and 9 o'clock position and advanced into the VH, one with the bevel pointed up towards the lens and the other with the bevel pointed down toward the retina. Three hundred μL of VH were drawn up through each needle, after which each needle was removed from the eye. The eye was then harvested and enucleated. Following enucleation, the remaining VH was collected as the third fraction. Samples from each eye in each animal remained separate and were not pooled. The weight of ocular tissues was recorded. Individual VH fractions were weighed separately. VH fractions were centrifuged at 16,100×g at room temperature for 20-30 minutes. The supernatant was separated. Pellets containing liposome constructs and supernatant were snap frozen separately on dry ice and stored at −60 to −80° C. Retina was also collected from these animals, snap frozen on dry ice, and stored at −60 to −80° C.
Two additional animals (one per subgroup) were administered a single or double dose of free urea solution IVT into the right eye (OD) and balanced salt solution (BSS) into the left eye (OS). Animals were anesthetized with an IM injection of ketamine hydrochloride (30 mg/kg) and xylazine (5 mg/kg). One to two drops of topical proparacaine hydrochloride anesthetic (0.5%) were applied to the animal's eyes prior to the surgical procedure.
Clinical ophthalmic examinations, fundus photography, and optical coherence tomography (OCT) were performed in these animals on Days 0-3, 4 (AM and PM), 8 (±1), 14, 21, and 28 post dose. For OCT, pupils were dilated with one drop each of 10% phenylephrine and 1% tropicamide approximately 10-15 minutes prior to imaging. Images were taken using the Spectralis® instrumentation (Heidelberg Engineering, Inc., Heidelberg, Germany).
Data set [2] has the same test system. As to conditions: for PVD observations by OCT: OD.
Protocol: Five female New Zealand White rabbits were given a single administration of urea solution IVT into both eyes (OU) at doses of 2.5, 5, 10, 25 and 50 mg/eye.
Prior to placement in the study, each animal underwent an ophthalmic examination (slit-lamp biomicroscopy and indirect ophthalmoscopy). Ocular findings were scored according to a modified McDonald-Shadduck Scoring System. The acceptance criteria for placement on study were scores of “0” for all variables.
All procedures were performed using sterile technique. Animals were anesthetized for IVT injections, OCT, and B-Scan imaging with an IM injection of ketamine hydrochloride (50 mg/kg for imaging, 15-30 mg/kg for IVT injections) and xylazine (5 mg/kg). For one animal, anesthesia was prolonged via inhaled isoflurane (1-1.5% in 1.5-2 L/min oxygen) during baseline imaging due to extended duration of imaging. For another animal, inhaled isoflurane (2% in 1.5 L/min oxygen) was used to anesthetize the animal for IVT injections, because the animal had undergone baseline imaging (which included ketamine/xylazine anesthesia) earlier in the same day. One to two drops of topical proparacaine hydrochloride anesthetic (0.5%) were applied to the animal's eyes prior to the surgical procedure.
Prior to IVT injection, eyes were cleaned with Betadine and then rinsed with BSS. Using a ⅝ inch needle, injections were made 3 to 4 mm away from the limbus. Once the needle had been inserted, urea solution or BSS was injected. The needle was removed and the eye rinsed with BSS. Animals were recovered immediately after dosing and monitored during recovery. Triple antibiotic ophthalmic ointment was administered to the eyes during recovery.
Animals were euthanized on Day 35 (±4) and their eyes (whole globe) were collected and submitted for histopathological analysis.
Ophthalmic examinations (slit-lamp biomicroscopy and indirect ophthalmoscopy) were performed on Days −3 or 0 (baseline prior to test/control article administration), 1, 4, 7 or 8, 14, 21, and 35. Day 4 examinations were performed at the beginning of the workday. Day 21 examinations were performed only on Groups 1, 2, and 5. Ocular findings were scored according to a modified McDonald-Shadduck Scoring System. […] Observations included assessment of the development and time course of PVD.
Images of the fundus were taken on Days −3 or 0 (baseline prior to drug or BSS administration), 1, 4, 7 or 8, 14, 21, and 35. Day 4 images were taken at the beginning of the workday. Day 21 images were taken only of Groups 1, 2, and 5. Animals were not anesthetized for imaging.
OCT was performed on Days −3 or 0 (baseline prior to test/control article administration), 1, 4, 7 or 8, 14, 21, and 35. Day 4 images were taken at the beginning of the workday. Day 21 images were taken only of Groups 1, 2, and 5. Animals were anesthetized as described above. A total of 8 images per rabbit per day was acquired.
B-Scan ultrasound images were taken on Days −3 or 0 (baseline prior to test/control article administration) and on Day 35.

Like-named read-outs stand apart in the source and are kept apart here.

For `NC(N)=O` [urea, Urea], the “vitreous clouding (fundus photography)” value in data set [1] (96 and 192 mg/eye IVT, OD) is “clouding of the OD vitreous from Day 0 through Day 3”. The “toxicity from Day 3 onward (fundus imaging)” value in data set [1] (96 and 192 mg/eye IVT, OD, at the site of delivery, peaked Days 3-7) was “severe retinal folding and vascular hemorrhage”. The “retinal detachment (OCT)” value in data set [1] (96 and 192 mg/eye IVT, peaked between Days 3 and 7, then subsided) is “retina had detached mostly at the ganglion cell layer”. The “days on which OCT imaging showed PVD” value in data set [1] (Subgroup 2a, 96 mg/eye IVT, OD) is “Day 3”; in data set [1] (Subgroup 2b, 192 mg/eye IVT, OD), “Days 4 (AM and PM), 7, and 14”. Besides, the “time to development of PVD” value in data set [1] (free urea 96 mg/eye (single dose) or 192 mg/eye (double dose) IVT, OD) is at most 2 days. For the same compound, in data set [1] (immediately after IVT injection, resolved over the next few days in surviving animals), the “ocular irritation and swelling after IVT injection” value was “ocular irritation and swelling were observed”. In addition, the “adverse effects on body weights and general health” value in data set [1] (single IVT dosing, liposome constructs 56-96 mg total urea/eye, free urea 96 or 192 mg/eye) is “No adverse effects on body weights and no severe adverse effects on general health”. Also, the “PVD in clinical ophthalmic examinations” value in data set [2] (2.5-50 mg/eye IVT, up to Day 35) is given as “No evidence of PVD”. The “PVD observations by OCT” value in data set [2] (Group 1, 5 mg urea IVT) was “Partial PVD on Day 35”; in data set [2] (Group 2, 10 mg urea IVT) it was “Partial PVD on Day 7 and beyond”; in data set [2] (Group 5, 2.5 mg urea IVT), “Possible partial PVD on Day 4, none observed”. Also, the “PVD in B-scan images, Day 35” value in data set [2] (Group 4, 50 mg/eye) is given as “evidence of PVD in the right eye (OD)”; in data set [2] (other animals (2.5, 5, 10, 25 mg/eye)) it was “no PVD could be detected”.
